Measurements taken from patent US20030138857A1, “Method of inhibiting atherosclerotic plaque destabilization” (priority 2002, published 2003).
Where “and” joins values, the source holds several entries; their conditions need not be identical. Identical values can stand only once. Where a SMILES comes first, the peptide text is derived from it. The star is where a group is joined. Cbz = O=C(OCc1ccccc1)*; CH2F = FC*

System: VSMCs
Assay: Monocyte/VSMC co-culture apoptosis assay (Hoechst 33342/propidium iodide, apoptotic index)
Format: cell-based, human
Settings: for inhibition of M-CSF-triggered, monocyte-induced apoptosis of VSMCs: eptifibatide 5 μg/ml, tirofiban 0.35 μg/ml, compared with abciximab; for VSMC apoptosis: M-CSF 100 ng/mL
Experimental: VSMCs (passage 3 to 7) were obtained from Clonetics and from heart donors. VSMC identity was confirmed by α-smooth muscle actin staining. VSMCs initially were grown in growth medium (SmGM2; Clonetics) with 5% serum, and at 60% to 70% confluence, the media was changed to a serum-free medium (50:50 of DMEM/F12 media with 5 mL of ITS, PSA, L-glutamine, and nonessential amino acids per 500 mL of solution). After 72-hour incubation in the serum-free medium, VSMCs were co-cultured with monocytes. Co-culture experiments were also conducted with the use of SmGM2 media (5% serum) throughout the experiment.
Leukocytes were isolated from buffy coat preparations (American Red Cross) by means of the Ficoll-Paque gradient method. Monocytes were isolated by means of an indirect magnetic labeling system and a monocyte isolation kit. The purity of monocytes obtained was […], which was confirmed by flow cytometry with anti-CD-14-FITC and anti-CD45-PE antibodies.
Freshly isolated monocytes were added 3:1 to VSMCs. Conditions included wells with VSMCs alone (with or without M-CSF) and VSMCs co-cultured with monocytes (with and without M-CSF). Experiments were conducted with either no serum or 5% serum in media. Experiments were also repeated by preincubating VSMCs with a pan-caspase inhibitor (1 hour at 37° C.) (ZVAD-fmk [10 μmol/L/mL]; sequence Z-Val-Ala-Asp [Ome]-CH2 F), before addition of the MMs and M-CSF. Media and ZVAD-fmk were replenished every 24 hours. Specific controls were used for VSMCs with ZVAD-fmk.
Abciximab, aggrastat, and eptifibatide, 3 established parenteral glycoprotein (GP) IIb/IIIa blockers, were added to MM and VSMC co-cultures before exposure to M-CSF. Controls were used for VSMCs with abciximab, aggrastat, and eptifibatide separately, with or without M-CSF. All experiments were done in triplicate.
Experiments were done with the use of recombinant human IL-1 β (100 to 1000 pg/mL) in place of M-CSF. Anti-human M-CSF neutralizing antibody (1 μg/mL) was added along with IL-1 β, and the VSMCs plus monocytes were co-cultured for 72 hours. Isotype control, IgG2a (clone 20102.1), was used for VSMCs cultured with monocytes and IL-1 β.
After 72-hour incubation, MM and VSMC co-cultures were stained live with the Vybrant Apoptosis kit (Molecular Probes), consisting of 2 nuclear stains, Hoechst 33342 (5 mg/mL) and propidium iodide (1 mg/mL). After incubation for 20 minutes at 37° C., coverslips were washed and the cell death index was estimated as previously described (Webster et al, J. Clin. Invest. 104:239-252 ([…])) (apoptotic index=dead cells/[live cells+dead cells]×100).

## COC(=O)C[C@H](NC(=O)[C@H](C)NC(=O)[C@@H](NC(=O)OCc1ccccc1)C(C)C)C(=O)CF [ZVAD-fmk, Z-Val-Ala-Asp [Ome]-CH2 F, reference compound] (Cbz-Val-Ala-Asp(OMe)-CH2F)
VSMCs preincubated with ZVAD-fmk (10 μmol/L/mL)
  apoptosis induced by co-culture with activated monocytes: completely abrogated
VSMCs preincubated with ZVAD-fmk (10 μmol/L/mL), co-cultured with monocytes and M-CSF, 72 h
  apoptotic index of VSMCs: 15.4±0.4%

## N=C(N)NCCCC[C@@H]1NC(=O)CCSSC[C@@H](C(N)=O)NC(=O)[C@@H]2CCCN2C(=O)[C@H](Cc2c[nH]c3ccccc23)NC(=O)[C@H](CC(=O)O)NC(=O)CNC1=O [eptifibatide, reference compound] (HELM PEPTIDE1{[O=C(CCS[*:3])[*:2]].[N=C(N)NCCCC[C@H](N[*:1])C(=O)[*:2]].G.D.W.P.C.[am]}$PEPTIDE1,PEPTIDE1,1:R3-7:R3$$$V2.0)
Eptifibatide 5 μg/mL, VSMCs with monocytes and M-CSF
  cell death index: 51.3±2.2%
  inhibition of M-CSF-triggered, monocyte-induced apoptosis of VSMCs: unable to confer similar protection

## IL-1: recombinant human IL-1 β, monocyte-activating cytokine (R&D Systems)
VSMCs with monocytes and IL-1 100 pg/mL in place of M-CSF
  apoptotic index of VSMCs: 10.5±2.4%
VSMCs with monocytes and IL-1 500 pg/mL
  monocyte-induced VSMC death: 59.5±3.5%
VSMCs with monocytes and IL-1 1000 pg/mL (1 ng/mL)
  monocyte-induced VSMC death: 59±3.8%

## CCCCS(=O)(=O)N[C@@H](Cc1ccc(OCCCCC2CCNCC2)cc1)C(=O)O [tirofiban, reference compound]
  inhibition of M-CSF-triggered, monocyte-induced apoptosis of VSMCs: unable to confer similar protection
Tirofiban 0.35 μg/mL, VSMCs with monocytes and M-CSF
  cell death index: 65.0±3.4%

B1: M-CSF: recombinant macrophage colony-stimulating factor (R&D Systems), hematopoietic growth factor (protein, UniProt P09603 33-554, looked up)
Macrophage colony-stimulating …: EEVSEYCSHMIGSGHLQSLQRLIDSQMETSCQITFEFVDQEQLKDPVCYLKKAFLLVQDIMEDTMRFRDNTPNAIAIVQLQELSLRLKSCFTKDYEEHDKACVRTFYETPLQLLEKVKNVFNETKNLLDKDWNIFSKNCNNSFAECSSQDVVTKPDCNCLYPKAIPSSDPASVSPHQPLAPSMAPVAGLTWEDSEGTEGSSLLPGEQPLHTVDPGSAKQRPPRSTCQSFEPPETPVVKDSTIGGSPQPRPSVGAFNPGMEDILDSAMGTNWVPEEASGEASEIPVPQGTELSPSRPGGGSMQTEPARPSNFLSASSPLPASAKGQQPADVTGTALPRVGPVRPTGQDWNHTPQKTDHPSALLRDPPEPGSPRISSLRPQGLSNPSTLSAQPQLSRSHSSGSVLPLGELEGRRSTRDRRSPAEPEGGPASEGAARPLPRFNSVPLTDTGHERQSEGSFSPQLQESVFHLLVPSVILVLLAVGGLLFYRWRRRSHQEPQRADSPLEQPEGSPLTQDDRQVELPV
VSMCs in direct contact with activated monocytes
  VSMC apoptosis: 66.3±1.8%
Monocytes separated from VSMCs by porous insert (3-μm pores)
  VSMC apoptosis: 21.0±1.0%
VSMCs cultured with M-CSF (100 ng/mL) but without monocytes
  apoptotic index of VSMCs: 15.7±1.5%
VSMCs cultured with both M-CSF (100 ng/mL) and monocytes, 4 sets of experiments
  apoptotic index of VSMCs: 58.8±3.3%
VSMCs with M-CSF-activated monocytes, no inhibitor (comparison group of later experiments; M-CSF concentration not given)
  apoptotic index of VSMCs: 60±2.1% and 60.0±3.0% and 51.9±1.6% and 51.9±1.8%

B2: abciximab: chimeric monovalent and humanized monoclonal antibody Fab fragment; GP IIb/IIIa blocker that binds Mac-1 (antibody, chains of the INN, looked up, V domains shown)
VH: EVQLQQSGTVLARPGASVKMSCEASGYTFTNYWMHWVKQRPGQGLEWIGAIYPGNSDTSYIQKFKGKAKLTAVTSTTSVYMELSSLTNEDSAVYYCTLYDGYYVFAYWGQGTLVTVSA
VL: EIVLTQSPVTLSVTPGDSVSLSCRASRDISNNLHWFQQTSHESPRLLIKYASQSMSGIPSRFSGSGSGTDFTLSINSVETEDFGMYFCQQTNSWPYTFGGGTKLEIK
modifications: Fab
Abciximab 7 μg/mL, VSMCs with monocytes and M-CSF
  apoptotic index of VSMCs: 19.1±2.3% and 19.1±2.2%
Abciximab 7 μg/mL, VSMCs with monocytes and M-CSF, listed as Abciximab
  apoptotic index of VSMCs: 19.1±2.2%
